Measured values: ChEMBL document CHEMBL5029191, “The Inhibitors of Protein Tyrosine Phosphatase Nonreceptor Type 2 (PTPN2) as Potential Enhancers of Cancer Immunotherapy and Type 1 (PTPN1) as Treatment of Metabolic Diseases” (ACS Med Chem Lett, 2022)

Columns and labels:
B16-F10 [1] = assay: Growth inhibition of […]-induced mouse B16-F10 cells at 33 uM relative to control; assay type: functional; conditions: read-out: GI
[2] = molecular target: T1, Tyrosine-protein phosphatase non-receptor type 2 (Homo sapiens, UniProt P17706); assay: Inhibition of PTPN2 (unknown origin) by Mobility shift assay
T1 sequence (P17706 whole entry): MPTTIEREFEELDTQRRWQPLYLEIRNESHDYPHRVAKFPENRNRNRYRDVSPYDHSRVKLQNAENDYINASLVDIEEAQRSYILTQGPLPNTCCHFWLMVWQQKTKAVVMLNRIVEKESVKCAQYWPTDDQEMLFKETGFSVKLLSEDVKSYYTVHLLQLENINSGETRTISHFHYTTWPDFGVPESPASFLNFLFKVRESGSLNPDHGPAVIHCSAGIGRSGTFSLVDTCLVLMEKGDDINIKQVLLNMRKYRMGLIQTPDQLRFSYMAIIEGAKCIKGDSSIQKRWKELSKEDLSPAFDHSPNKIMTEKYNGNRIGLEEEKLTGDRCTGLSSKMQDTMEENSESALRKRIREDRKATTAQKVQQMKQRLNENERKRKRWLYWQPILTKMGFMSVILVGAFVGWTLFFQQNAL

B16-F10 [3] = assay: Growth inhibition of mouse B16-F10 cells at 33 uM relative to control; assay type: functional; conditions: read-out: GI
[4] = molecular target: T2, Tyrosine-protein phosphatase non-receptor type 1 (Homo sapiens, UniProt P18031); assay: Inhibition of PTPN1 (unknown origin) by Mobility shift assay
T2 sequence (P18031 whole entry): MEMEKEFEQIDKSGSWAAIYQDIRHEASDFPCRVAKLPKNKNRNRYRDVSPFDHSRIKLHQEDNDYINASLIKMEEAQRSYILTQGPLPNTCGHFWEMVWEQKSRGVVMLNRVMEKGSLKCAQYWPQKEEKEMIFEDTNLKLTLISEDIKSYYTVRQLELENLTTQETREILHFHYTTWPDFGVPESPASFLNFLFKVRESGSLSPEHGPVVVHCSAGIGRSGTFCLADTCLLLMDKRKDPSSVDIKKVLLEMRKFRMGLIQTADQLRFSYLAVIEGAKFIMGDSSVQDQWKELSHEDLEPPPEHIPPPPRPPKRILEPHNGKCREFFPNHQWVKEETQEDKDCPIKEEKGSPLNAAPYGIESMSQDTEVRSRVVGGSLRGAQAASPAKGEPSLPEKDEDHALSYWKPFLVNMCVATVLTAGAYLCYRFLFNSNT

| SMILES | inhibition of growth at 33 µM (B16-F10 [1]) | IC50 [2] | inhibition of growth at 33 µM (B16-F10 [3]) | IC50 [4] |
| --- | --- | --- | --- | --- |
| O=C1CN(c2c(O)cc3ccc(C4CCN(S(=O)(=O)C5CC5)C4)cc3c2F)S(=O)(=O)N1 (centres undefined) | 60% | < 1 nM | < 25% | 1 nM |
| O=C1CN(c2c(O)cc3ccc(OCCC4CC4(F)F)cc3c2F)S(=O)(=O)N1 (centres undefined) | 60% | < 1 nM | < 25% | < 1 nM |
| O=C1CN(c2c(O)cc3ccc(NCCC4CC4)cc3c2F)S(=O)(=O)N1 | > 90% | 1 nM | < 25% | 1 nM |
| CC(C)CCS(=O)(=O)N1CC=C(c2ccc3cc(O)c(N4CC(=O)NS4(=O)=O)c(F)c3c2)C1 | 60% | < 1 nM | < 25% | < 1 nM |
| O=C1CN(c2c(O)cc3ccc(NCCN4CCC4)cc3c2F)S(=O)(=O)N1 | > 90% | 1 nM | < 25% | > 100 nM |
| CCS(=O)(=O)N1CC=C(c2ccc3cc(O)c(N4CC(=O)NS4(=O)=O)c(F)c3c2)C1 | > 90% | < 1 nM | < 25% | < 1 nM |
| CC(C)(C#N)CCOc1ccc2cc(O)c(N3CC(=O)NS3(=O)=O)c(F)c2c1 | 60% | < 1 nM | < 25% | < 1 nM |
| C[C@H](O)CCOc1ccc2cc(O)c(N3CC(=O)NS3(=O)=O)c(F)c2c1 | > 90% | < 1 nM | < 25% | 1 nM |
| O=C1CN(c2c(O)cc3ccc(OCC4CCCOC4)cc3c2F)S(=O)(=O)N1 (centres undefined) | 60% | < 1 nM | < 25% | > 100 nM |
| CC(C)(O)CCOc1ccc2c(F)c(N3CC(=O)NS3(=O)=O)c(O)cc2c1 | – | > 10 nM | – | > 100 nM |
| O=C1CN(c2c(O)cc3ccc(-c4cnn(CC5CC5)c4)cc3c2F)S(=O)(=O)N1 | 60% | < 1 nM | < 25% | < 1 nM |
| CC(C)(C#N)CCOc1cc2c(F)c(N3CC(=O)NS3(=O)=O)c(O)cc2cc1O | – | < 1 nM | – | < 1 nM |
